Measured values published in publication PMC2719696, “Kinetics and Cellular Site of Glycolipid Loading Control the Outcome of Natural Killer T Cell Activation” (Immunity, 2009).

Key:
murine iNKT cell TCRs = assay: Equilibrium binding of glycolipid-loaded mCD1d tetramers to murine iNKT cells; parameters: species or system mouse; settings: tetramer staining of murine iNKT cells
Method: The interactions of iNKT cell TCRs with CD1d molecules loaded with αGalCer analogs were analyzed with fluorescent murine and human CD1d tetramers. […] Equilibrium binding studies for measuring TCR avidities were carried out by incubation of human or murine iNKT cells with varying concentrations of αGalCer-analog-loaded tetramers and determining relative levels of cell-associated fluorescence ([Stanic et al., 2003; Yu et al., 2005]).
Figure 2 Characterization of iNKT Cell TCR Interactions with αGalCer Analogs (A) Flow cytometry analysis of human and murine iNKT cells with αGalCer analog-CD1d tetramers. In the top row, murine iNKT cells from C57BL/6 splenocytes were costained with αGalCer analog-loaded or unloaded mCD1d tetramers conjugated with PE (x axis) and αGalCer-C26:0-loaded-mCD1d tetramers conjugated with APC (y axis). In the bottom row, human PBMCs were similarly costained with human glycolipid-loaded CD1d tetramers. (B) Binding avidity of glycolipid-mCD1d complexes to murine iNKT cell TCRs. Histograms at left show tetramer staining of NK1.1^+ CD3^+ T cells in C57BL/6 splenocytes with glycolipid-loaded tetramers at 20 nM. […]
Recombinant CD1d proteins were produced and assembled into tetramers for staining as previously described ([Forestier et al., 2007]). […] All samples were analyzed with the FACSCalibur flow cytometer (BD Biosciences).

mCD1d = target: T1, mCD1d (Mus musculus, UniProt P11609); assay: mAb L363 staining of αGalCer-mCD1d complexes on cultured mouse splenocytes; type: cell-based; settings: 100 nM glycolipid, 1 hr or 19 hr
T1 construct: host or cells: JAWS II (C57BL/6.Trp53-/- derived dendritic cell line)
T1 sequence (P11609 22-336): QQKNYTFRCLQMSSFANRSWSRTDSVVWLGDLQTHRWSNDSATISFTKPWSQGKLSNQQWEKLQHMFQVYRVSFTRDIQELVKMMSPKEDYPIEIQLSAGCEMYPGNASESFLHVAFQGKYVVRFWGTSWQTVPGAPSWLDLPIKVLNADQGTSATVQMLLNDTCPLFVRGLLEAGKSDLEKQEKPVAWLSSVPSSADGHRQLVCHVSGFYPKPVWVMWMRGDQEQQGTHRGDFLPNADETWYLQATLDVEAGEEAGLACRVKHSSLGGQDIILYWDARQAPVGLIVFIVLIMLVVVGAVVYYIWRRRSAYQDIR
T1 sequence (P01887 21-119 partner): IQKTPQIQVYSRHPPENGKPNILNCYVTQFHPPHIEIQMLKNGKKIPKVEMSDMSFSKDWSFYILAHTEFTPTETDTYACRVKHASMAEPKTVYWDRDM
Method: We studied this possibility directly by using a monoclonal antibody (L363) that specifically recognizes complexes of αGalCer bound to mCD1d ([Yu et al., 2007]). Mouse splenocytes were cultured with either αGalCer-C26:0 or representative Th2 cell-type cytokine-biasing analogs, and L363 staining was assessed on various cell types (Figure 3A). […] This was investigated further with more detailed kinetic studies in which immortalized mouse DC line JAWS II was cultured with each glycolipid and assessed for L363 surface staining at 0.5, 4, and 18 hr (Figure 3B). […]
Figure 3 Direct Analysis of Presentation of αGalCer Analogs with Complex-Specific mAb Staining (A) Mouse splenocytes cultured with either vehicle only (0.02% DMSO) or with the indicated αGalCer analogs (100 nM) were harvested after 1 hr or 19 hr of incubation and stained with mAb L363 or anti-CD1d mAb 1B1 and with mAbs specific for CD11c, CD19, and F4/80 (Figure S4). […] (B) JAWS II cells were incubated with glycolipids (250 nM) for various times ranging from 0.5–18 hr as indicated, stained with mAb L363, and analyzed by flow cytometry. […]
Recombinant CD1d proteins were produced and assembled into tetramers for staining as previously described ([Forestier et al., 2007]). […] All samples were analyzed with the FACSCalibur flow cytometer (BD Biosciences). […]

Row | SMILES | TCR avidity of glycolipid-mCD1d complexes (murine iNKT cell TCRs) | L363 staining of splenocyte populations (mCD1d)
1 | CCCCCCCCCCCCCCCCCCCCCCCC(=O)NC(COC1OC(CO)C(O)C(O)C1O)C(O)C(O)CCCCC (centres unmarked) [OCH] | weak binding | –
2 | CCCCCCCCCCCCCCC(O)C(O)C(COC1OC(CO)C(O)C(O)C1O)NC(=O)CCCCCCCCC (centres unmarked) [αGalCer-C10:0] | – | extremely early appearance of L363 staining
